Measured values published in US7396538B2, “Apparatus and method for delivery of mitomycin through an eluting biocompatible implantable medical device” (Endovascular Devices, Inc., priority 2002, dated 2008).
≈ marks a conversion by molar mass, not a printed value.

Tested on: vascular smooth muscle cell
Test: vascular smooth muscle cell (VSMC) proliferation study at varying concentrations of mitomycin C
Type: cell-based
Method: One example of a study was conducted to investigate the vascular smooth muscle cell proliferation (VSMC) from varying concentrations of the mitomycin C. […] A lower dosage of mitomycin C would still permit the advance of VSMC and contribute to increased restenosis and […]. Depending upon the observed biological effects from potentially cytotoxic local tissue levels, a higher concentration of mitomycin C may also still be sufficient.

With CO[C@@]12[C@H](COC(N)=O)C3=C(C(=O)C(C)=C(N)C3=O)N1C[C@@H]1N[C@@H]12 [mitomycin C] the IC50 (Rattus norvegicus, extrapolation from a logarithmic curve of VSMC inhibition at various dosages, read-out: concentration at which about 50% VSMC inhibition occurs) was roughly 0.067 µg/mL (≈ 0.2 µM), the VSMC inhibited (dose of about 0.334 micrograms per milliliter) was “about 66%” and the VSMC inhibited (dose of about 25.1 micrograms per milliliter) was “about 98%”.
